Measurements as given in ChEMBL document CHEMBL5046284, “Structure-Based Design of a Chemical Probe Set for the 5-HT5A Serotonin Receptor” (J Med Chem, 2022).
Blank lines part the entries; values can stand above or below the molecule they belong to. Active and inactive are the calls of the source.

Tests used:
[1] = target: T1, 5-hydroxytryptamine receptor 5A (Homo sapiens, UniProt P47898); experiment: Displacement of [3H]-5-CT from human 5-HT5A receptor at 100 uM incubated for 2 hr by radioligand binding assay
[2] = target: T1, 5-hydroxytryptamine receptor 5A; experiment: Antagonist activity at human 5-HT5AR assessed as […] of [35S]GTPgammaS binding at 100 uM incubated for 3 to 5 hrs; format: functional; conditions: filed as antagonist, time 3-5 hrs
Mus musculus [3] = experiment: Antiallodynic activity in IT dosed […] mouse model of spared nerve injury-induced neuropathic pain assessed as increase in paw withdrawal mechanical threshold measured after 30 mins by von Frey test; format: functional, organism-based
[4] = target: T2, Alpha-2A adrenergic receptor (Homo sapiens) (UniProt P08913); experiment: Agonist activity at ADRA2A (unknown origin) transfected in HTLA cells assessed as beta-arrestin 2 recruitment at 10 uM incubated for 18 to 20 hrs by luciferin based Tango assay; format: functional, cell-based; conditions: time 18-20 hrs
T2 sequence (whole entry): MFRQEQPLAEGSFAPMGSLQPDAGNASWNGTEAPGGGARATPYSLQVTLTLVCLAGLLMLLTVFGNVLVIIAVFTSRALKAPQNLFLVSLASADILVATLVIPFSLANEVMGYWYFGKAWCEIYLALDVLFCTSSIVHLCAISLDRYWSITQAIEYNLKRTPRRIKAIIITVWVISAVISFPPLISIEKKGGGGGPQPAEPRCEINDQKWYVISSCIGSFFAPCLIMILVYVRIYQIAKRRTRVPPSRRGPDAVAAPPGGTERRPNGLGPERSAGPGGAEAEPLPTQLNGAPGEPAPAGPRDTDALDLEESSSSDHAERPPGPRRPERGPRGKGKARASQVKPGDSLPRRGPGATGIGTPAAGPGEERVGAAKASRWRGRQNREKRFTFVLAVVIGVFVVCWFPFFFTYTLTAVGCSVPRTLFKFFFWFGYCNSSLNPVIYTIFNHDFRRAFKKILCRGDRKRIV

[5] = target: Melatonin receptor type 1A (Homo sapiens) (UniProt P48039); experiment: Agonist activity at MTNR1A (unknown origin) transfected in HTLA cells assessed as beta-arrestin 2 recruitment at 10 uM incubated for 18 to 20 hrs by luciferin based Tango assay; format: functional, cell-based; conditions: time 18-20 hrs
[6] = target: T3, 5-hydroxytryptamine receptor 1A (Homo sapiens) (UniProt P08908); experiment: (§1) Binding affinity to 5-HT1AR (unknown origin) assessed as inhibition constant
T3 sequence (whole entry): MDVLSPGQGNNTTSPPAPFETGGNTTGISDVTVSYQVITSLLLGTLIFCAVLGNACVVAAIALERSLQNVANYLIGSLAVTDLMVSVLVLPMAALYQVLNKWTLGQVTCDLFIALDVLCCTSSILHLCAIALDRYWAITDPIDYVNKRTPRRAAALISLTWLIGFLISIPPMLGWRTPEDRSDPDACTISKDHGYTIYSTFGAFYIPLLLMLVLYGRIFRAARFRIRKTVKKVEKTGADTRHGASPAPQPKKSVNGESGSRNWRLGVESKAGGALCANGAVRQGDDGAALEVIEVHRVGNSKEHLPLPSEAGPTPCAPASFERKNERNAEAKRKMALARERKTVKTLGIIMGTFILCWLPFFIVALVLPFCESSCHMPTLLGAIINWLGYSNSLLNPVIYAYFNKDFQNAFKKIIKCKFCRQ

[7] = target: 5-hydroxytryptamine receptor 1B (Homo sapiens, UniProt P28222); experiment: Binding affinity to 5-HT1BR (unknown origin) assessed as inhibition constant
[8] = target: 5-hydroxytryptamine receptor 1D (Homo sapiens, UniProt P28221); experiment: Binding affinity to 5-HT1DR (unknown origin) assessed as inhibition constant
[9] = target: 5-hydroxytryptamine receptor 2A (Homo sapiens, UniProt P28223); experiment: Binding affinity to 5-HT2AR (unknown origin) assessed as inhibition constant
[10] = target: 5-hydroxytryptamine receptor 2B (Homo sapiens, UniProt P41595); experiment: Binding affinity to 5-HT2BR (unknown origin) assessed as inhibition constant
[11] = target: T4, 5-hydroxytryptamine receptor 2C (Homo sapiens) (UniProt P28335); experiment: (§2) Binding affinity to 5-HT2CR (unknown origin) assessed as inhibition constant
T4 sequence (whole entry): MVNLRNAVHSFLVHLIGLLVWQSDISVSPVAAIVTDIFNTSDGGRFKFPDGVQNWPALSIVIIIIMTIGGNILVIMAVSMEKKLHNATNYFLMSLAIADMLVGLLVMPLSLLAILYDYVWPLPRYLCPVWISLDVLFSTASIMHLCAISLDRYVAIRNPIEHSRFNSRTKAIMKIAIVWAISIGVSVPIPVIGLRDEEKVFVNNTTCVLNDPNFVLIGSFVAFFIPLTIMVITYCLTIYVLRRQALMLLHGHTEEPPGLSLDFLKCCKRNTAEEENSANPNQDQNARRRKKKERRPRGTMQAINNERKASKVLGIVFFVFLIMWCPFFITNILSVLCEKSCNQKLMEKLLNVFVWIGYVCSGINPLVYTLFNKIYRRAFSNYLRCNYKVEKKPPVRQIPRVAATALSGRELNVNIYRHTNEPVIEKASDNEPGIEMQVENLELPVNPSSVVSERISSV

[12] = target: T5, 5-hydroxytryptamine receptor 3A (Homo sapiens) (UniProt P46098); experiment: (§3) Binding affinity to 5-HT3 (unknown origin) assessed as inhibition constant
T5 sequence (whole entry): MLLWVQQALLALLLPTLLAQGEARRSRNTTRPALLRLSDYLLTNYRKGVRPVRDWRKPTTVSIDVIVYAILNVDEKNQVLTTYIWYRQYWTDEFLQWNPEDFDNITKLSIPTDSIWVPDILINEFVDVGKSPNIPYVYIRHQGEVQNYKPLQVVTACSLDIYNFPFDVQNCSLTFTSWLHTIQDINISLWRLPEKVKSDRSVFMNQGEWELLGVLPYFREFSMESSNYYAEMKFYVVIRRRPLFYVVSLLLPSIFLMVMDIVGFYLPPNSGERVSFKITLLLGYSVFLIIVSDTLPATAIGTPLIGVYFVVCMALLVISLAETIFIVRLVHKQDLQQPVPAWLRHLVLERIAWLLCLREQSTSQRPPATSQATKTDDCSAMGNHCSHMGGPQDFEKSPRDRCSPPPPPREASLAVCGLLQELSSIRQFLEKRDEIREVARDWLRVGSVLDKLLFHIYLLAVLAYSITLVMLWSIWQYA

[13] = target: T1, 5-hydroxytryptamine receptor 5A; experiment: Displacement of [3H]-5-CT from human 5-HT5A receptor at 32 uM incubated for 2 hr by radioligand binding assay
[14] = target: T1, 5-hydroxytryptamine receptor 5A; experiment: Displacement of [3H]-5-CT from human 5-HT5A receptor at 1 uM incubated for 2 hr by radioligand binding assay
[15] = target: T1, 5-hydroxytryptamine receptor 5A; experiment: Displacement of [3H]-5-CT from human 5-HT5A receptor incubated for 2 hr by radioligand binding assay
Mus musculus [16] = experiment: Sedative activity in IT dosed […] mouse assessed as effect on locomotor activity measured after 60 mins by rotarod test; format: toxicity, organism-based; conditions: in vivo, icv_or_intrathecal, 1 h
Mus musculus [17] = experiment: Effect on baseline mechanical thresholds in IT dosed […] mouse measured after 30 mins by von Frey test; format: functional, organism-based
[18] = target: T1, 5-hydroxytryptamine receptor 5A; experiment: Agonist activity at human 5-HT5A receptor transfected in HTLA cells assessed as increase in beta-arrestin 2 recruitment at 10 uM incubated for 18 to 20 hrs by bright-Glo reagent based Tango assay; format: functional, cell-based
[19] = target: T1, 5-hydroxytryptamine receptor 5A; experiment: Agonist activity at human 5-HT5A receptor transfected in HTLA cells assessed as increase in beta-arrestin 2 recruitment by measuring maximal efficacy at 10 uM incubated for 18 to 20 hrs by bright-Glo reagent based Tango assay relative to control; format: functional, cell-based; conditions: time 18-20 hrs
[20] = target: D(2) dopamine receptor (Homo sapiens) (UniProt P14416); experiment: Agonist activity at DRD2 (unknown origin) transfected in HTLA cells assessed as beta-arrestin 2 recruitment at 10 uM incubated for 18 to 20 hrs by luciferin based Tango assay; format: functional, cell-based; conditions: filed as agonist, time 18-20 hrs
[21] = target: T4, 5-hydroxytryptamine receptor 2C (Homo sapiens); experiment: Agonist activity at 5-HT2CR (unknown origin) transfected in HTLA cells assessed as beta-arrestin 2 recruitment at 10 uM incubated for 18 to 20 hrs by luciferin based Tango assay; format: functional, cell-based; conditions: filed as agonist, time 18-20 hrs
Homo sapiens = species: Homo sapiens; experiment: Binding affinity to human 5-HT5A receptor W117A mutant ssessed as fold reduction in binding by competition binding assay relative to control; conditions: filed as agonist
[22] = target: 5-hydroxytryptamine receptor 7 (Homo sapiens) (UniProt P34969); experiment: Binding affinity to 5-HT7AR (unknown origin)
[23] = target: Atypical chemokine receptor 3 (Homo sapiens) (UniProt P25106); experiment: Agonist activity at CXCR7 (unknown origin) transfected in HTLA cells assessed as beta-arrestin 2 recruitment at 10 uM incubated for 18 to 20 hrs by luciferin based Tango assay; format: functional, cell-based; conditions: time 18-20 hrs
HEK-293T = experiment: Cytotoxicity against HEK293T cells assessed as reduction in cell viability at high concentration incubated for overnight; format: toxicity, cell-based; conditions: human
[24] = target: T6, 5-hydroxytryptamine receptor 1A (Homo sapiens, UniProt P08908); experiment: as §1
T6 sequence (P08908 whole entry): T3 sequence (whole entry)

[25] = target: T7, 5-hydroxytryptamine receptor 2C (Homo sapiens, UniProt P28335); experiment: as §2
T7 sequence (P28335 whole entry): T4 sequence (whole entry)

[26] = target: T8, 5-hydroxytryptamine receptor 3A (Homo sapiens, UniProt P46098); experiment: as §3
T8 sequence (P46098 whole entry): T5 sequence (whole entry)

[27] = target: T1, 5-hydroxytryptamine receptor 5A; experiment: Antagonist activity at human 5-HT5AR assessed as inhibition of beta-arrestin 2 recruitment by measuring reduction in RLuc8-based luminescence incubated for 20 to 30 mins in absence of agonist by luminescence based analysis; format: functional; conditions: filed as antagonist, time 20-30 min

T1 sequence (P47898 whole entry): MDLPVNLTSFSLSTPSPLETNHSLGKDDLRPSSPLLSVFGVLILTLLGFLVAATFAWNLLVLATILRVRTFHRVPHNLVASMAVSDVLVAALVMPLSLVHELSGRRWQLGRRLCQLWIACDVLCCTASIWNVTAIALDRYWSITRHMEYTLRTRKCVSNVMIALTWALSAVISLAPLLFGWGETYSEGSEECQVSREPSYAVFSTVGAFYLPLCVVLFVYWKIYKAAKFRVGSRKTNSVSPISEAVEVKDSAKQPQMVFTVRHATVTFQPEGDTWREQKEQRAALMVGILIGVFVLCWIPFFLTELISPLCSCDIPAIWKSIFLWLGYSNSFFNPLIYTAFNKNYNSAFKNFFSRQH
Sequence of 5-hydroxytryptamine receptor 2B (P41595 whole entry): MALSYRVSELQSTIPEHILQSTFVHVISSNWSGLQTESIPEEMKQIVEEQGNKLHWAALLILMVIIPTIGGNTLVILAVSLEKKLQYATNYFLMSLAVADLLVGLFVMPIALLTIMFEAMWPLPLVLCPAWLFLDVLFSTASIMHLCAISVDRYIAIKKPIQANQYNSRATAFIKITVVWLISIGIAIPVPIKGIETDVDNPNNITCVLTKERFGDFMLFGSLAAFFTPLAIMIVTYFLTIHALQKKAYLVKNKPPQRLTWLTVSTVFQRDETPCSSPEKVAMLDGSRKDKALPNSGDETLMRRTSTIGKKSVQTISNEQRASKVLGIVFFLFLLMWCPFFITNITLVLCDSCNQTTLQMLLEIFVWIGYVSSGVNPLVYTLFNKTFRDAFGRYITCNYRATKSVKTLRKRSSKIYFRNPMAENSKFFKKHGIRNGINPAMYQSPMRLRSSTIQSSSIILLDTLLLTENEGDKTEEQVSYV
Sequence of 5-hydroxytryptamine receptor 1B (P28222 whole entry): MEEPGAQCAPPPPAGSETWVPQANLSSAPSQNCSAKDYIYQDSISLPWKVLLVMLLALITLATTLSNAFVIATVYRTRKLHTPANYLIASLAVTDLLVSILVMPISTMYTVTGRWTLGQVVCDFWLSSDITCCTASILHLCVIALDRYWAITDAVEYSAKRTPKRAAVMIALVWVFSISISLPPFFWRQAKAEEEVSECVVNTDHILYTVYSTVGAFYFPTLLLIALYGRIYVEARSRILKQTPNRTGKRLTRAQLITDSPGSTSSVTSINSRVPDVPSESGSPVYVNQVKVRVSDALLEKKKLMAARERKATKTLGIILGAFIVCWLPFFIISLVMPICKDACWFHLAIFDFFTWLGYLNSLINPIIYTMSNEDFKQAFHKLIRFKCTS
Sequence of 5-hydroxytryptamine receptor 1D (P28221 whole entry): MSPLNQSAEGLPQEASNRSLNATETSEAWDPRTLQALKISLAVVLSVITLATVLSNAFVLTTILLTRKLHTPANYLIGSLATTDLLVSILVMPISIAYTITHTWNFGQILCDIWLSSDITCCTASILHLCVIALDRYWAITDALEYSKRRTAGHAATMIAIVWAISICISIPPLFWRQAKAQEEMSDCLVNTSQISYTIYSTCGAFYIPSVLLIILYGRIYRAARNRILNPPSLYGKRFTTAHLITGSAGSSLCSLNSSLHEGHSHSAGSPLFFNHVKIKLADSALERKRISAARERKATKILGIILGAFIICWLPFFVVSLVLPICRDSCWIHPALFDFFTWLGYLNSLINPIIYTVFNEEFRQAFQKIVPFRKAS
Sequence of 5-hydroxytryptamine receptor 2A (P28223 whole entry): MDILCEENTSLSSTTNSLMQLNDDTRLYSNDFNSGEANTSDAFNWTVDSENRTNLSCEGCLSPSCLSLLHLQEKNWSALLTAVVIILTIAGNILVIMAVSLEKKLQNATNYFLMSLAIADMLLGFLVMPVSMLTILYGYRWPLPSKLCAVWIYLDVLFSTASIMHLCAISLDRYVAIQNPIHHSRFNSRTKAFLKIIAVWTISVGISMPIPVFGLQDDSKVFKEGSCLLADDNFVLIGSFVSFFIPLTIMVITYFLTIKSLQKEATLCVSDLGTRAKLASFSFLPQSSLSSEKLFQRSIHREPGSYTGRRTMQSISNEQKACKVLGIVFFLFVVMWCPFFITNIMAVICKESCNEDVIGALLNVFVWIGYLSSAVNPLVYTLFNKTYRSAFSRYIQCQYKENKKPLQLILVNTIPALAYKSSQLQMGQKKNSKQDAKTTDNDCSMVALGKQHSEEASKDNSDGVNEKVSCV
Sequence of 5-hydroxytryptamine receptor 7 (Homo sapiens) (P34969 whole entry): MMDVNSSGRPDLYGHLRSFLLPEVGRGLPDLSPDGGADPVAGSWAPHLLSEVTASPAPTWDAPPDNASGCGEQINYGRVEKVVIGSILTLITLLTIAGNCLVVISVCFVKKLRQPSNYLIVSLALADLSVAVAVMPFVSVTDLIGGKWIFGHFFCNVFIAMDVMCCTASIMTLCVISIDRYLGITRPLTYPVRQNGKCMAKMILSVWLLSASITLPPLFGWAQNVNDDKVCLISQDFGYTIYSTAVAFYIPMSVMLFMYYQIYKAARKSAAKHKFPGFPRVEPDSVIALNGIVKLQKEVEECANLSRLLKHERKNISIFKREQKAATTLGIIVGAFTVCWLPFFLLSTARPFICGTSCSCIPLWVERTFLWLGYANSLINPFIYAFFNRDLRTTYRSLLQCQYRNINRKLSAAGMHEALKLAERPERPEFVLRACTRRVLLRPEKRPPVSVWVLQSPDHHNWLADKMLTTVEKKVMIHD
Sequence of D(2) dopamine receptor (Homo sapiens) (P14416 whole entry): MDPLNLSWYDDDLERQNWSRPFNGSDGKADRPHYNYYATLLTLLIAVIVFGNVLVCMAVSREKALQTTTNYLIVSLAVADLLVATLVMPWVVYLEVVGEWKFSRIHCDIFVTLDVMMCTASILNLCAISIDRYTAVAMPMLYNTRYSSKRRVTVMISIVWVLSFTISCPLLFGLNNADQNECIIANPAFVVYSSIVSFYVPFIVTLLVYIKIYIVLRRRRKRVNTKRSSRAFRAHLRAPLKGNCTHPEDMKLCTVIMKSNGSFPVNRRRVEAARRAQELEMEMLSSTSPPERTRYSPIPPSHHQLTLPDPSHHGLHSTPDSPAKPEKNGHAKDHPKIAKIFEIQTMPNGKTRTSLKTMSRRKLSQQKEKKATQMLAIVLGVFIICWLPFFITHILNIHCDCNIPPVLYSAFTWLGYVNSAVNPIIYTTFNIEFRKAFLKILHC
Sequence of Melatonin receptor type 1A (Homo sapiens) (P48039 whole entry): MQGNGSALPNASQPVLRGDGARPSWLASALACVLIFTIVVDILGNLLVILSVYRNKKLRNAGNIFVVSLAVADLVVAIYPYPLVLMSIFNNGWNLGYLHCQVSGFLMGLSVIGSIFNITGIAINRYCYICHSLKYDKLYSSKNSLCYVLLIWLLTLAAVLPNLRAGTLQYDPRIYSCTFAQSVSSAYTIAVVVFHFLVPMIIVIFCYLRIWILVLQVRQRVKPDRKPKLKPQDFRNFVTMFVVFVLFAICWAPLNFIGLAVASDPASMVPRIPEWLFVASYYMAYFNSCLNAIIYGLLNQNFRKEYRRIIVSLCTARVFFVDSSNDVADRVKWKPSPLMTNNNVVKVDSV
Sequence of Atypical chemokine receptor 3 (Homo sapiens) (P25106 whole entry): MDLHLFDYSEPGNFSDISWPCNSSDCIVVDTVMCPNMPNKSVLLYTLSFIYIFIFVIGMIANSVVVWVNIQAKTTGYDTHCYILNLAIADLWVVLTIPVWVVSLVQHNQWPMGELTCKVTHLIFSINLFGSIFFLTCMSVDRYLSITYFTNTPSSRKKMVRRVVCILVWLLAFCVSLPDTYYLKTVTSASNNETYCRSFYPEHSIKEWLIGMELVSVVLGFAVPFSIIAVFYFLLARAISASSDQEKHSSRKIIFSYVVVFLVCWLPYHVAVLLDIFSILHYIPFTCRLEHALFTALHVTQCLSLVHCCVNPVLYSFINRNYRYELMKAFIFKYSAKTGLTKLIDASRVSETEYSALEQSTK

Compound: CC(C)(C)c1ccc2c(c1)CN(C[C@@H](O)COC1CCOCC1)CC2
- Ki [1]: 21400 nM
- Activity [2]: Active

Compound: CN(C)S(=O)(=O)CCNCc1cccc2ncccc12
- Activity (Mus musculus [3]): inactive
- Activity [4]: inactive
- Activity [5]: inactive
- Activity [6]: inactive
- Activity [7]: inactive
- Activity [8]: inactive
- Activity [9]: inactive
- Activity [10]: inactive
- Activity [11]: inactive
- Activity [12]: inactive

Compound: O=C1C[C@H](CNCc2ccc(Cl)c3cccnc23)CN1C1CC1
- Ki [13]: 6700 nM

Compound: CN1CC[C@H](CNCc2ccc(Cl)c3cccnc23)CC1=O
- Ki [13]: 4000 nM

Compound: Clc1ccc(CNC[C@H]2CCn3ccnc3C2)c2ncccc12
- Ki [13]: 1500 nM

Compound: O=S1(=O)CCC[C@@H](CNCc2cccc3cccnc23)C1
- Ki [14]: 705 nM

Compound: Cc1cnc(NCc2ccccc2-n2ccnc2)nc1N(C)C
- Ki [1]: 12900 nM
- Activity [2]: Active

Compound: O=S1(=O)CC[C@@H](CNCc2cccc3cccnc23)C1
- Ki [14]: 570 nM

Compound: CN(C)S(=O)(=O)CCNCc1cccc2cccnc12
- Ki [15]: 229 nM

Compound: CS(=O)(=O)CCCNCc1ccc(Cl)c2cccnc12
- Activity (Mus musculus [3]): Active
- Activity (Mus musculus [16]): Non-Toxic
- Activity (Mus musculus [17]): inactive

Compound: CS(=O)(=O)C1(CNCc2cccc3cccnc23)CC1
- Activity (Mus musculus [3]): Active
- Activity (Mus musculus [16]): Non-Toxic
- EC50 [18]: 355 nM
- Emax [19]: 18.3%
- Activity [20]: Active
- Activity [21]: Active
- fold change (FC) (Homo sapiens): 25
- Activity [6]: inactive
- Activity [10]: inactive
- Activity (Mus musculus [17]): inactive
- Activity [22]: inactive

Compound: Cc1cnn(C[C@H](C)NCc2cccc(OCc3ccccn3)c2)c1
- Ki [1]: 20900 nM
- Activity [2]: Active

Compound: N#CC1(c2ccccc2)CCC(NCCc2nnc3ccccn23)CC1 (stereo not drawn)
- Ki [1]: 28800 nM
- Activity [2]: Active

Compound: CN(C)CCN(Cc1ccc(-c2ccc(CNCCc3ccccc3)cc2)cc1)C(=O)CCC1CCCC1
- Activity (HEK-293T): Non-Toxic
- Ki [24]: < 2000 nM
- Ki [7]: < 2000 nM
- Ki [8]: < 2000 nM
- Ki [9]: < 2000 nM
- Ki [10]: < 2000 nM
- Ki [25]: < 2000 nM
- Ki [26]: < 2000 nM
- Activity [27]: Dose-Dependent Effect
- Activity [2]: Active

Second part, led by results:

- Ki [13]: 6700 nM
Compound: Clc1ccc(CNCC[C@@H]2CCOC2)c2ncccc12

- Ki [13]: 3100 nM
Compound: O=S1(=O)CCC[C@@H](CNCc2ccc(Cl)c3cccnc23)C1

- Ki [1]: 11500 nM
- Activity [2]: Active
Compound: O=C(CCCNCc1ccc(Cl)c2cccnc12)NC1CC1

- Ki [15]: 271 nM
Compound: CN(C)S(=O)(=O)CCNCc1ccc(F)c2cccnc12

- EC50 [18]: 3630 nM
- Emax [19]: 10.5%
Compound: CS(=O)(=O)C1(CNCc2ccc(Cl)c3cccnc23)CC1
- Activity (Mus musculus [3]): inactive

- Activity [23]: inactive
- Activity [6]: inactive
- Activity [10]: inactive
- Activity [22]: inactive
- Ki [15]: > 10000 nM
Compound: CCS(=O)(=O)CCCNCc1ccc(Cl)c2cccnc12
- Activity (Mus musculus [3]): Active
- Activity (Mus musculus [16]): Non-Toxic
- Activity (Mus musculus [17]): inactive

- fold change (FC) (Homo sapiens): 3.9
- Ki [15]: 107 nM
Compound: CN(C)S(=O)(=O)C1(CNCc2ccc(Cl)c3cccnc23)CC1

- Ki [14]: 2400 nM
Compound: Clc1ccc(CNCCc2cccnc2)c2ncccc12

- Ki [14]: 208 nM
Compound: CN(C)S(=O)(=O)CCNCc1ccc(Cl)c2cccnc12
